# Measured values as given in article PMC6384738, “Structure-Function Studies of Polymyxin B Lipononapeptides” (Molecules, 2019).
# *1 amine or outer side, *2 acyl side, *3 side chain or, on linkers, in order; H or OH if unused. Where a SMILES comes first, the peptide text is derived from it. Bridges are numbered along the chain shown (N, C = ends). [ ]: non-standard residue; d: D form. The star is where a group is joined. NH(2-ClPh) = Clc1ccccc1N*; dDab = NCC[C@@H](N)C(=O)O; Octanoyl = CCCCCCCC(=O)*; Dab = NCC[C@H](N)C(=O)O; CO = O=C([*:1])[*:2]
# How the values were obtained:
# [1] = in vitro; settings: human
# Procedure, shortened: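 HK-2 cells seeded 2000 cells/well in DMEM/F12 with 10% FBS, grown 24 h, then exposed to compounds (300 µM to 2.3 µM, 2-fold series; colistin/polymyxin B 1 mM to 7.8 µM) for 24 h at 37 °C. LDH in medium read at 450 nm after 30 min; cytotoxicity % relative to 1% Triton X-100 and untreated cells.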
# [2] = system: K. pneumoniae ATCC 13833; assay: microbe, parasite or virus in culture
# Procedure, shortened: (§1)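 Broth microdilution; read-out = minimum inhibitory concentration, mg/L. Comparators: polymyxin B, colistin, vancomycin, gentamicin.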
# [3] = system: P. aeruginosa ATTC 27853; assay: microbe, parasite or virus in culture
# Procedure, shortened: as §1
# [4] = system: S. aureus ATCC 25923; assay: microbe, parasite or virus in culture
# Procedure, shortened: as §1
# [5] = system: K. pneumoniae BAA 2146; assay: microbe, parasite or virus in culture
# Procedure, shortened: as §1
# [6] = system: P. aeruginosa FADDI PA070; assay: microbe, parasite or virus in culture
# Procedure, shortened: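 Growth inhibition is assessed by broth microdilution, with the MIC expressed in mg/L; polymyxin B, colistin, vancomycin and gentamicin act as positive controls.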
# [7] = system: E. coli ATCC 25922; assay: microbe, parasite or virus in culture
# Procedure, shortened: as §1
# [8] = system: A. baumannii ATCC 19606; assay: microbe, parasite or virus in culture
# Procedure, shortened: as §1
# [9] = system: K. pneumoniae ATCC 700603; assay: microbe, parasite or virus in culture
# Procedure, shortened: as §1
# [10] = system: ATCC reference strains (Escherichia coli, Klebsiella pneumoniae, A. baumannii, and P. aeruginosa)
# Protocol: All compounds synthesised in this study were assessed for their minimum inhibitory concentrations (MIC, mg/L) by broth microdilution assay against five antibiotic-sensitive and resistant ATCC reference strains covering the Gram-negative ESKAPE pathogens (Escherichia coli, Klebsiella pneumoniae, A. baumannii, and P. aeruginosa) (Table 1, Table 2 and Table 3). Staphylococcus aureus was also included as a representative Gram-positive bacterial strain. […] Polymyxin B 1, colistin 2, vancomycin and gentamicin were used as positive inhibitor comparator compounds. Compounds were counter-screened against human proximal tubular epithelial cells (HK-2), using LDH release as a general indicator of cellular toxicity.
"MIC K. pneumoniae ATCC 13833 ([2]; ATCC 13833, 18 h) [µg/mL]","MIC P. aeruginosa ATTC 27853 ([3]; ATTC 27853, 18 h) [µg/mL]","MIC S. aureus ATCC 25923 ([4]; ATCC 25923, 18 h) [µg/mL]","MIC K. pneumoniae BAA 2146 ([5]; BAA 2146, 18 h) [µg/mL]","MIC P. aeruginosa FADDI PA070 ([6]; FADDI PA070, 18 h) [µg/mL]","MIC E. coli ATCC 25922 ([7]; ATCC 25922, 18 h) [µg/mL]","MIC A. baumannii ATCC 19606 ([8]; ATCC 19606, 18 h) [µg/mL]","MIC K. pneumoniae ATCC 700603 ([9]; ATCC 700603, 18 h) [µg/mL]",SMILES,CC50 at 24 h [1] [µM],other results
>32,1,>32,>32,>32,16,>32,32,CCCCCCCC(=O)NCC(=O)N[C@H](CCN)C(=O)N[C@H]1CCNC(=O)[C@H]([C@@H](C)O)NC(=O)[C@H](CCN)NC(=O)[C@H](CCN)NC(=O)[C@H](CC(C)C)NC(=O)[C@@H](Cc2ccccc2)NC(=O)[C@H](CCN)NC1=O [Compound 33] (Octanoyl-G[dDab][Dab][Dab][dF]L[Dab][Dab]T; lactam 3-C),262,
>32,4,>32,>32,8,32,>32,>32,CCCCCCCC(=O)N[C@@H](CC(N)=O)C(=O)N[C@H](CCN)C(=O)N[C@H]1CCNC(=O)[C@H]([C@@H](C)O)NC(=O)[C@H](CCN)NC(=O)[C@H](CCN)NC(=O)[C@H](CC(C)C)NC(=O)[C@@H](Cc2ccccc2)NC(=O)[C@H](CCN)NC1=O [Compound 28] (Octanoyl-N[dDab][Dab][Dab][dF]L[Dab][Dab]T; lactam 3-C),> 300,
,,,,,,,,"CN[C@H](CC(C)C)C(=O)N[C@H]1C(=O)N[C@@H](CC(N)=O)C(=O)N[C@H]2C(=O)N[C@H]3C(=O)N[C@H](C(=O)N[C@H](C(=O)O)c4cc(O)cc(O)c4-c4cc3ccc4O)[C@H](O)c3ccc(c(Cl)c3)Oc3cc2cc(c3O[C@@H]2O[C@H](CO)[C@@H](O)[C@H](O)[C@H]2O[C@H]2C[C@](C)(N)[C@H](O)[C@H](C)O2)Oc2ccc(cc2Cl)[C@H]1O [Vanc, vancomycin, reference compound]",> 300,"MIC ([2]; Klebsiella pneumoniae, ATCC13833, 18 h, read-out: MIC K. pneumoniae ATCC 13833): > 32 µg/mL; MIC ([3]; Pseudomonas aeruginosa, ATTC27853, 18 h, read-out: MIC P. aeruginosa ATTC 27853): > 32 µg/mL; MIC ([4]; Staphylococcus aureus, ATCC25923, 18 h, read-out: MIC S. aureus ATCC 25923): 2 µg/mL; MIC ([5]; Klebsiella pneumoniae, BAA2146, 18 h, read-out: MIC K. pneumoniae BAA 2146): > 32 µg/mL; MIC ([6]; Pseudomonas aeruginosa, FADDIPA070, 18 h, read-out: MIC P. aeruginosa FADDI PA070): > 32 µg/mL; MIC ([7]; Escherichia coli, ATCC25922, 18 h, read-out: MIC E. coli ATCC 25922): > 32 µg/mL; MIC ([8]; Acinetobacter baumannii, ATCC19606, 18 h, read-out: MIC A. baumannii ATCC 19606): > 32 µg/mL; MIC ([9]; Klebsiella pneumoniae, ATCC700603, 18 h, read-out: MIC K. pneumoniae ATCC 700603): > 32 µg/mL"
,,,,,,,,CC(C)C[C@@H]1NC(=O)[C@@H](Cc2ccccc2)NC(=O)[C@H](CCN)NC(=O)[C@@H](NC(=O)[C@@H](CCN)NC(=O)[C@@H](NC(=O)Nc2ccccc2Cl)[C@@H](C)O)CCNC(=O)[C@H]([C@@H](C)O)NC(=O)[C@H](CCN)NC(=O)[C@H](CCN)NC1=O [Compound 22] ({NH(2-ClPh)-CO}-T[dDab][Dab][Dab][dF]L[Dab][Dab]T; lactam 3-C),> 300,"MIC K. pneumoniae ATCC 13833 ([2]; broth microdilution, 18 h): 16 µg/mL; MIC P. aeruginosa ATTC 27853 ([3]; broth microdilution, 18 h): 2 µg/mL; MIC S. aureus ATCC 25923 ([4]; Gram-positive strain, broth microdilution, 18 h): >32 µg/mL; MIC K. pneumoniae BAA 2146 ([5]; NDM-1 positive strain, broth microdilution, 18 h): 16 µg/mL; MIC P. aeruginosa FADDI PA070 ([6]; Pmx-resistant clinical isolate, broth microdilution, 18 h): >32 µg/mL; MIC E. coli ATCC 25922 ([7]; broth microdilution, 18 h, 37 °C): 16 µg/mL; MIC A. baumannii ATCC 19606 ([8]; broth microdilution, 18 h): >32 µg/mL; MIC K. pneumoniae ATCC 700603 ([9]; ESBL strain, broth microdilution, 18 h): 16 µg/mL"

SMILES,"MIC K. pneumoniae ATCC 13833 ([2]; ATCC 13833, 18 h) [µg/mL]","MIC P. aeruginosa ATTC 27853 ([3]; ATTC 27853, 18 h) [µg/mL]","MIC S. aureus ATCC 25923 ([4]; ATCC 25923, 18 h) [µg/mL]","MIC K. pneumoniae BAA 2146 ([5]; BAA 2146, 18 h) [µg/mL]","MIC P. aeruginosa FADDI PA070 ([6]; FADDI PA070, 18 h) [µg/mL]","MIC E. coli ATCC 25922 ([7]; ATCC 25922, 18 h) [µg/mL]","MIC A. baumannii ATCC 19606 ([8]; ATCC 19606, 18 h) [µg/mL]","MIC K. pneumoniae ATCC 700603 ([9]; ATCC 700603, 18 h) [µg/mL]",CC50 at 24 h [1] [µM],other results
CCCCCCCC(=O)N[C@H](C(=O)N[C@@H](CCN)C(=O)N[C@H]1CCNC(=O)[C@H]([C@@H](C)O)NC(=O)[C@H](CCN)NC(=O)[C@H](CCN)NC(=O)[C@H](CC(C)C)NC(=O)[C@@H](Cc2ccccc2)NC(=O)[C@H](CCN)NC1=O)[C@@H](C)O [Compound 8] (Octanoyl-T[Dab][Dab][Dab][dF]L[Dab][Dab]T; lactam 3-C),1,0.5,>32,2,,,,2,209,MIC for most strains [10]: 1 to 2 µg/mL
